Assay results: patent US12023421B2, “Medical devices for continuous delivery of therapeutic agents” (Adenopaint LLC, priority 2019, dated 2024)
Converted amounts (≈) assume the structure as drawn.

What was measured:
[1] = test system: Yucatan mini-pigs; assay: Acetylcholine-induced coronary vasoconstriction (no-reflow) in the pig (Example 6, second protocol); assay type: in vivo; conditions: 0.3 to 1.0 mg/min infused into the LAD for 20 to 30 min; preliminary studies
Procedure: Animal Studies: All porcine studies were approved by Institutional Animal Care and the Committee of Synchrony Labs LLC, NC. Yucatan mini pigs (25 to 30 Kg) were premeditated with Telazol (5 mg/Kg). Anesthesia was maintained with 1% isoflurane and supplemental oxygen to maintain a pH of 7.4±0.6. Animals received aspirin 300 mg orally for three days prior to the study and were anticoagulated throughout the procedure with heparin (150 units/kg) to maintain ACT greater than 300. Heart rate, EKG changes and blood pressure were monitored continuously utilizing leads I, AVF and AVL with a 6 F sheath in the left femoral artery. […] Coronary blood flow velocity (CFV) was measured utilizing a 0.014-inch Doppler flowwire (Combowire, Volcano Corporation, Rancho Cordova, CA, USA) and dedicated software. CFV was measured as a continuous average pulse wave velocity over 4 seconds and mean values were recorded every 60 seconds.
In the second protocol the ability of the wire to prevent and reverse intense vasoconstriction induced by intracoronary administration of acetylcholine (Ach) was evaluated. […] In other experiments, we evaluated whether an adenosine-releasing wire could prevent the NRF by placing the adenosine-loaded wire initially into the LAD. […]
For statistical analyses, data are expressed as mean±SEM. […]

[2] = in plasma or blood; cited from earlier work
[3] = cited from earlier work
[4] = test system: coronary flow velocity; conditions: continuous infusion into the LAD at 50 μg/kg/min; previous studies; cited from earlier work
[5] = Particle size stability of jet-milled adenosine in hydrogel (laser diffraction and optical microscopy); assay type: physicochemical; conditions: after one week in the hydrogel; particles less than 5 microns
Procedure: Next, the inner drug layer was prepared. In this regard, a 20% w/w solution of PVA/PVP (99:1 mass ratio) in DI water was prepared and autoclaved for 1 hr while stirring. This yielded a supersaturated solution which was homogeneous and free of bubbles. Using a water bath, the temperature of the PVA/PVP solution was maintained at 65° C. In order to create a sufficient drug load on the wire, a 25% concentration of adenosine was used in the drug layer. Adenosine has poor solubility in water ([…]) and commercial adenosine has a mean particle size of 55 microns which would have compromised the lubricity of the wire. Utilizing a two-pass jet-milling process, the solid phase adenosine particles were reduced in size to less than 5 microns. Micronized adenosine was mixed in DI water, sonicated for 15 min and then added to the PVA/PVP mixture and the PVA/PVP/adenosine mixture was stirred until a homogeneous solution was obtained. […] Next, the guidewire coated with the PEG-silanol primer was coated with the adenosine-containing hydrogel. Multiple hydroxyl groups in the hydrogel form hydrogen bonds with multiple ether oxygens in the primer, thus creating an extensive network of hydrogen bonds between the drug-containing hydrogel layer and the primer layer (FIG. 14, Reaction 4).

[6] = In vitro release studies in 0.9% saline at 37° C. (Example 6); assay type: physicochemical
Procedure: In vitro release studies were performed in 0.9% saline rather than in plasma or blood because adenosine has a short half-life (seconds) in the latter two media making detection difficult. Tubes containing 15 ml saline were maintained at 37° C. and 10 cm of the spaced coiled section of the guidewire was placed serially in tubes for 0 to 5, 5 to 10, 10 to 20, 20 to 30, 30 to 40, 40 to 50, and 50 to 60 minutes. One ml samples were then taken from the tube to measure the concentration of adenosine by spectrophotometry (Jackson E K, Mi Z, Koehler M T, Carcillo J A Jr, Herzer W A. Injured erythrocytes release adenosine deaminase into the circulation. J Pharmacol Exp Ther 1996; 279: 1250-60).

[7] = In vitro drug elution from coated guidewires in phosphate-buffered saline at 37° C. (UV 260 nm); assay type: physicochemical
Procedure: FIG. 4 illustrates representative time release of a therapeutic agent, adenosine, from the distal 10 cm of three guidewires with two coats of PVA/PVP polymer cured with 2 freeze/thaw cycles. The inner therapeutic coat was a 7.5% (w/w) of PVA/PVP with 1.5 mg of adenosine added as described in the application. The outer barrier layer was made of 10.0% (w/w) of PVA/PVP. The guidewire was placed in a beaker containing phosphate-buffered saline at 37° C. that was constantly stirred with a magnetic device. Samples were taken periodically from the beaker and analyzed for adenosine amount by UV spectrophotometry (absorption at 260 nm). Note the complete elution of the drug in a curvilinear fashion over 60 minutes.
Note that elution was more rapid with greater than 90% eluted over 20 minutes.
FIG. 6 illustrates a representative example of an extremely rapid elution of another drug diltiazem utilizing a polymer with a ratio of PVA/PVAC and two freeze/thaw cycles. The drug was completely eluted over 10 minutes.
Utilizing the same protocol as Example 1, the freeze/thaw cycles were increased to 3-8 and the barrier concentration was increased to 15.0% (w/w). Utilizing adenosine as the prototype therapeutic agent the elution profile was increased with the majority of drug elution occurring in 30 min.

SMILES: CC(=O)OCC[N+](C)(C)C [Ach, acetylcholine]
- reduction in CBFV [1]: ~80%

SMILES: Nc1ncnc2c1ncn2[C@@H]1O[C@H](CO)[C@@H](O)[C@H]1O [adenosine, Adenosine]
- half-life [2]: seconds
- solubility in water [3]: 80 mg/mL (≈ 299 mM)
- increase in CFV [4]: approximately 250%
- particle size stability in the hydrogel [5]: stable
- time by which most of the remainder was released ([6]; Example 6 guidewires): ≤ 40 min
- total amount of released adenosine ([6]; Example 6 guidewires (PVA/PVP drug layer, PVA/PVAc 1:3 barrier), over 60 min): 2.7±0.2 mg/10 cm length of wire
- adenosine released in the first 20 min ([6]; Example 6 guidewires, relative to 60-min timepoint): approximately 60%
- time in which the majority of drug elution occurred ([7]; Example 2, protocol of Example 1 with 3-8 freeze/thaw cycles and barrier concentration 15.0% (w/w)): 30 min
- time of complete elution of the drug from guidewire ([7]; FIG. 4, distal 10 cm of guidewires, inner coat 7.5% (w/w) PVA/PVP with 1.5 mg adenosine, outer barrier 10.0% (w/w) PVA/PVP, 2 freeze/thaw cycles, curvilinear): 60 min
- drug eluted over 20 minutes ([7]; FIG. 5, 8 freeze/thaw cycles, polymer 10% inner and 15% outer layer): greater than 90%
- release profile ([7]; FIG. 7, guidewires coated with polymer mixture of 3:1 and 1:1 ratios of PVAC to PVA): optimal for a typical coronary interventional procedure

SMILES: COc1ccc([C@@H]2Sc3ccccc3N(CCN(C)C)C(=O)[C@@H]2OC(C)=O)cc1 [diltiazem]
- time of complete elution of the drug from guidewire ([7]; FIG. 6, polymer with a ratio of PVA/PVAC, two freeze/thaw cycles): 10 min
